Series [1] concerns C. neoformans ATCC 32045 cell membrane. The series can be described thus: Membrane potential, DiSC3(5) staining. It counts as cell-based, Cryptococcus neoformans. The settings on record: 1 × MIC, 8 × MIC and 16 × MIC; DiSC3(5) 0.5 μM, ex/em 622/670 nm. On the procedure: DiSC3(5) is a fluorescent probe often used as a tracer dye to assess the cell membrane potential. […] C. neoformans ATCC 32045 was selected for SDB medium and cultured in a constant-temperature shaker at 35 °C to the logarithmic phase. The supernatant was removed by centrifugation at 3500 rpm for 5 min, washed three times with normal saline, and then the fungal solution was diluted with normal saline containing 100 mM potassium chloride to an OD600 of about 0.1. […] The above-mixed suspension was added to a fluorescence-specific 96-well plate, 190 μL per well, and the excitation/emission wavelength was set at 622/670 nm, and a microplate reader was used for measurement. The measurement was performed until the microplate reader value was stable and then continued for 20 min. The experimental group was added with 10 μL blap-6 to make the final concentrations 16 × MIC, 8 × MIC, and 1 × MIC, respectively. The positive control group was added with 10 μL of valinomycin to a final concentration of 10 μM. The negative control was added to 10 μL of normal saline. Continue to measure for 60 min. Three replicates were set up in the experiment.

The subject of another series is C. neoformans ATCC 32045. Kind of series: Transmission electron microscopy of treated cells. The settings on record: 1 × MIC (0.81 μM), 12 h, 37 °C. The format is cell-based, Cryptococcus neoformans. The method, then:
The suspension of C. neoformans ATCC 32045 was prepared and then centrifuged at 3500 rpm for 5 min. The supernatant was discarded, and sterile normal saline was added for washing. That is, the above operation was repeated three times and re-suspended. […] The positive control, including the concentration of fluconazole and amphotericin, was 1 × MIC. The negative control was added with the same volume of sterile normal saline. After the sample was added to the fungal solution, it was incubated in an incubator at 37 °C for 12 h, and then centrifuged at 1000 rpm for 10 min. The supernatant was discarded, and osmium tetroxide was slowly added along the tube wall for fixation and fixed at 4 °C for 3 h. Gradient ethanol was used for dehydration, infiltration, and embedding. Finally, ultrathin sections were performed. After the above operation, the morphological changes in C. neoformans were observed by TEM (Tecnai G2 Spirit, FEI, Eindhoven, Holland) and photographed.

The next series concerns A. baumannii. Kind of series: microbe, parasite or virus in culture. It counts as cell-based, Acinetobacter baumannii (ATCC 1968). The text has this: (§1) These standard strains of Escherichia coli (E. coli, ATCC 8739), Staphylococcus aureus (S. aureus, ATCC 6538), Pseudomonas aeruginosa (P. aeruginosa, ATCC 27853), Acinetobacter baumannii (A. baumannii, ATCC 1968), Candida albicans (ATCC 10231), and the clinical strain of Methicillin-resistant Staphylococcus aureus (MRSA, MRSA-Z) were obtained from Kunming Medical University. The standard strain of C. neoformans (ATCC 32045) was purchased from Shanghai Yingxin Laboratory Co., Ltd. (CAS NO. YXJ50058). Different strains of E. coli, S. aureus, MRSA, P. aeruginosa, and A. baumannii were cultured with shaking at 37 °C in Luria–Bertani (LB) medium. C. neoformans was cultured at 35 °C in Sabouraud Dextrose Agar (SDA) medium according to the manufacturer’s instructions.
(§2) According to Clinical and Laboratory Standards Institute (CLSI) protocols, the minimum inhibitory concentration (MIC) is the minimum drug concentration at which antibiotics inhibit the growth and reproduction of strains. The different strains were grown in their corresponding media at 35 °C or 37 °C until they entered the exponential growth phase. Fluconazole and amphotericin B were used as positive controls, and sterile 0.9% NaCl was used as a negative control. The peptides were diluted to various concentrations in sterile saline. According to 1 OD = 1 × 10^9 CFU/mL, the above bacterial solution was diluted to 2 × 10^5 CFU/mL with the corresponding medium. In advance, 100 μL of normal saline was added to a sterile 96-well plate, and 200 μL of the sample to be tested was added to the first well. The sample to be tested was subjected to double gradient dilution, and then 100 μL of bacterial solution with a concentration of 2 × 10^5 was added to each well. It was cultured at 35 °C or 37 °C for different times. The light absorption value of the bacterial solution at 600 nm was detected by a microplate reader (Epoch Etock, Biotek, Winooski, VT, USA), and the average concentration of the samples in the pores and adjacent pores that could not detect microbial growth was used as the MIC value.

A further series concerns S. aureus. Kind of series: microbe, parasite or virus in culture. The format is cell-based, Staphylococcus aureus (ATCC 6538).
Text: as §1, §2

The next series can be described thus: in vitro. The format is in vitro ADME. On the procedure:
(§3) For investigating the impact of protease on blap-6, trypsin and chymotrypsin were chosen as the enzymes to be studied in the experiment. […] Then these samples (including blap-6 as a standard) were detected by high-performance liquid chromatography (HPLC, Waters, Milford, MA, USA) on a C18 column (4.6 mm × 250 mm, Waters, USA). Solvent A was ultrapure water, and solvent B was acetonitrile. The flow rate was 0.5 mL/min, and the detection wavelength was 280 nm. The column was balanced with 95% solvent A in 0-3 min and eluted with 95-40% solvent A in 3-10 min, 40-5% solvent A in 10-15 min, and 5-95% solvent A in 15-20 min. The degradation rate was calculated by the peak area of the HPLC.

Another series relates to trypsin. Kind of series: in vitro. The format is in vitro ADME. On the procedure: as §3

Where no end group is shown, it is not given here.

Take KRCRFRIYRWGFPRRRF [blap-6]: in series [1], the “change of membrane potential” value is “deviations toward cell hyperpolarization in a dose-dependent manner”. Also, the “cell morphology by TEM” value in the series with C. neoformans ATCC 32045 was “severe disruption of the structural and cellular morphology”. Moreover, the MIC against A. baumannii is on record as 19.54 µM; against S. aureus it was 9.77 µM. The half-life at 2.44 mg/mL in the series “in vitro” (isolated enzyme chymotrypsin) was roughly 5 h; in “in vitro” (isolated enzyme trypsin), roughly 6 h. In addition, the metabolised at 1 h, 2.44 mg/mL in “in vitro” (isolated enzyme chymotrypsin) amounted to 19%. Also, the metabolised at 24 h, 2.44 mg/mL in “in vitro” (isolated enzyme several chymotrypsin trypsin) came out at 90%. The degradation with trypsin result in the series with trypsin was “began to degrade”.

As a reminder, the half-life is the time needed for the level to fall by half in the phase considered. Low values mean fast loss, high ones slow loss.
